Reference: US4444776A, “Dipyrido (4,3-B) (3,4-F) indoles, process for obtaining them, therapeutical use and pharmaceutical compositions” (priority 1977, dated 1984)

Key:
[1] = system: replication of the DNA; test: Test 6: DNA replication in synchronised cells; type: cell-based; conditions: first minutes following addition
[2] = system: L1210 cells; test: Test 19: effect of time of administration, L1210 (Table XIV); type: in vivo, mouse; parameters: MST: unit not given beside the values; conditions: 20 mg/kg IP
Text: Test 19: Effect of the time of administration of compound 21
The non-protective effect at day+7 could be explained by the fact that some cells migrate through a compartment inaccessible to the drug (as postulated by J. B. Le Pecq for the 9-hydroxy-ellipticine).

[3] = system: Cl3/8 cells; test: Test 5: cytotoxic effect in vitro, Cl3/8 cells; type: cell-based, hamster
Method: Test 5: Cytotoxic effect in vitro
The cytotoxic effects of the compounds according to the invention were tested in vitro on cultures of hamster, human and mouse cells.
In particular, the BHK21 strain of hamster cells and a clone derived from this strain transformed by Hamster Sarcoma Virus HS5 clone) were used.
5 hours later, the cells were well attached to the plastic support, and the products to be tested were added, dilutions having been made thereof in water or in DMSO (dimethylsulfoxide) if the product is sparingly soluble in water. In this latter case, a control was made with the same final concentration of DMSO in the culture medium.
The state of the cells was examined 24, 48 and 72 hours afterwards.

Cc1c2ccncc2c(C)c2c1[nH]c1ccncc12 [Example 1, 5,11-dimethyl dipyrido [4,3-b][3,4-f] indole]
replication of the DNA, initiation and elongation steps [1]: stops, in the first minutes following its addition, the replication of the DNA

CCN(CC)CCCNc1nccc2c(C)c3[nH]c4ccncc4c3cc12 [Example 7, 1-(γ-diethylaminopropyl)amino-5-methyl-dipyrido-[4,3-b][3,4-f] indole]
ILS % ([2]; day +2): 56.4%
MST ([2]; day +2): 15.8
Range of death ([2]; day +2, 10^4 cells): 15-17
MST ([2]; day +3): 14.4
Range of death ([2]; day +3): 12-17
ILS % ([2]; day +3, listed as BD 40): 43.0%
ILS % ([2]; day +3, listed as Compound 21): 43%
ILS % ([2]; day +4): 22.8%
MST ([2]; day +4): 12.4
Range of death ([2]; day +4): 10-14
ILS % ([2]; day +5): 17.8%
MST ([2]; day +5): 11.9
Range of death ([2]; day +5): 10-13
ILS % ([2]; day +6): 20.8%
MST ([2]; day +6): 12.2
Range of death ([2]; day +6): 10-14
MST ([2]; day +7): 10.3
Range of death ([2]; day +7): 10-13
ILS % ([2]; day +7, listed as BD 40): 2.0%
ILS % ([2]; day +7, listed as Compound 21): 2%
cytotoxic activity compared with 2-methyl-9-hydroxy-ellipticinium acetate and 9-hydroxy-ellipticine ([3]; Table III summary): just as active as the already known derivatives
activity compared with products presently used as antitumoral agents in lower animals ([3]; general statement): just as active, or more so
